Laboratory results published in PubChem BioAssay AID256 (DTP/NCI, 2004).
“And” between values parts separate entries of the source, which are not always exact repeats. Equal values may be shown once. Toxic doses and inconclusive results are not listed. The calls were made as follows: active = survival T/C of 150% or more; inactive = T/C below 125% in these data.

Tested on: CD2F1 mice, L1210 leukemia ip, survival T/C
Assay: NCI In Vivo Anticancer Drug Screen. Data for tumor model L1210 Leukemia (intraperitoneal) in CD2F1 (CDF1) mice
Conditions: higher = longer survival
Experimental: The antitumor activity of compounds was measured in mice bearing transplantable tumors. Survival or tumor size were measured and the results are expressed as the measurement made in the treated group (T) divided by the measurement made in the vehicle treated control group (C). The tumor model used in this assay is L1210 Leukemia (intraperitoneal) in CD2F1 (CDF1) mice

[1] = endpoint: mean survival time, dose: 100.0 mg/kg/injection, schedule: Q01DX001 (ip), vehicle: saline
[2] = endpoint: mean survival time, dose: 400.0 mg/kg/injection, schedule: Q01DX001 (ip), vehicle: saline
[3] = endpoint: mean survival time, dose: 100.0 mg/kg/injection, schedule: Q04DX003 (ip), vehicle: saline with Tween-80
[4] = endpoint: mean survival time, dose: 200.0 mg/kg/injection, schedule: Q04DX003 (ip), vehicle: saline with Tween-80
[5] = endpoint: mean survival time, dose: 400.0 mg/kg/injection, schedule: Q04DX003 (ip), vehicle: saline with Tween-80
[6] = endpoint: mean survival time, dose: 12.5 mg/kg/injection, schedule: Q01DX005 (ip), vehicle: other
[7] = endpoint: mean survival time, dose: 100.0 mg/kg/injection, schedule: Q01DX001 (ip), vehicle: saline with Tween-80
[8] = endpoint: mean survival time, dose: 100.0 mg/kg/injection, schedule: Q01DX009 (ip), vehicle: saline with Tween-80
[9] = endpoint: mean survival time, dose: 200.0 mg/kg/injection, schedule: Q01DX009 (ip), vehicle: saline with Tween-80
[10] = endpoint: mean survival time, dose: 400.0 mg/kg/injection, schedule: Q01DX009 (ip), vehicle: saline with Tween-80
[11] = endpoint: mean survival time, dose: 50.0 mg/kg/injection, schedule: Q01DX009 (ip), vehicle: saline with Tween-80

Measured: T/C

CNc1ccc(C(=O)O)cc1C(F)(F)F
inactive: [1] 102 % of control | endpoint: mean survival time, dose: 200.0 mg/kg/injection, schedule: Q01DX001 (ip), vehicle: saline 101 % of control | [2] 102 % of control

O=Cc1c[nH]c2ncccc12
inactive: [3] 98 % of control | [4] 94 % of control | [5] 98 % of control

OC1CC2C=CC1CC2 (stereo not drawn)
inactive: endpoint: mean survival time, dose: 100.0 mg/kg/injection, schedule: Q01DX009 (ip), vehicle: saline 97 % of control | endpoint: mean survival time, dose: 200.0 mg/kg/injection, schedule: Q01DX009 (ip), vehicle: saline 94 % of control | endpoint: mean survival time, dose: 400.0 mg/kg/injection, schedule: Q01DX009 (ip), vehicle: saline 100 % of control

CCCCCCC[CH2][Sn]1([CH2]CCCCCCC)[O]C2C(CO)OC(n3cnc4c(=O)[nH]c(N)nc43)C2[O]1 (stereo not drawn)
inactive: endpoint: mean survival time, dose: 1.56 mg/kg/injection, schedule: Q01DX005 (ip), vehicle: other 96 % of control | endpoint: mean survival time, dose: 3.13 mg/kg/injection, schedule: Q01DX005 (ip), vehicle: other 98 % of control | endpoint: mean survival time, dose: 6.25 mg/kg/injection, schedule: Q01DX005 (ip), vehicle: other 102 % of control | [6] 104 % of control and 106 % of control

OCCc1ccccc1
inactive: endpoint: mean survival time, dose: 50.0 mg/kg/injection, schedule: Q03HX024 (ip), vehicle: saline with Tween-80 102 % of control | endpoint: mean survival time, dose: 100.0 mg/kg/injection, schedule: Q03HX024 (ip), vehicle: saline with Tween-80 100 % of control | [3] 96 % of control | endpoint: mean survival time, dose: 125.0 mg/kg/injection, schedule: Q01DX009 (ip), vehicle: saline 105 % of control | endpoint: mean survival time, dose: 200.0 mg/kg/injection, schedule: Q03HX024 (ip), vehicle: saline with Tween-80 100 % of control | [4] 93 % of control | endpoint: mean survival time, dose: 250.0 mg/kg/injection, schedule: Q01DX009 (ip), vehicle: saline 102 % of control | [5] 93 % of control | endpoint: mean survival time, dose: 500.0 mg/kg/injection, schedule: Q01DX001 (ip), vehicle: saline with Tween-80 106 % of control | endpoint: mean survival time, dose: 500.0 mg/kg/injection, schedule: Q01DX009 (ip), vehicle: saline 103 % of control

Cc1ccc(S(=O)(=O)NC(=O)C(Cc2ccccc2)c2ccccc2)cc1 (stereo not drawn)
inactive: endpoint: mean survival time, dose: 75.0 mg/kg/injection, schedule: Q01DX001 (ip), vehicle: other 96 % of control | endpoint: mean survival time, dose: 150.0 mg/kg/injection, schedule: Q01DX001 (ip), vehicle: other 98 % of control | endpoint: mean survival time, dose: 300.0 mg/kg/injection, schedule: Q01DX001 (ip), vehicle: other 96 % of control

O=C1C(Cc2ccccc2)CCCC1Cc1ccccc1 (stereo not drawn)
inactive: [7] 100 % of control | endpoint: mean survival time, dose: 200.0 mg/kg/injection, schedule: Q01DX001 (ip), vehicle: saline with Tween-80 98 % of control | endpoint: mean survival time, dose: 400.0 mg/kg/injection, schedule: Q01DX001 (ip), vehicle: saline with Tween-80 102 % of control

CN(C)C
inactive: [8] 103 % of control | [3] 102 % of control | [9] 101 % of control | [4] 105 % of control | [10] 105 % of control | [5] 104 % of control

CC(=[C-]C(=O)O)C(=O)O.[NH-]C1CCCCC1[NH-].[Pt]
inactive: endpoint: median survival time, dose: 6.25 mg/kg/injection, schedule: Q04DX003 (ip), vehicle: saline 100 % of control | endpoint: median survival time, dose: 12.5 mg/kg/injection, schedule: Q04DX003 (ip), vehicle: saline 100 % of control | endpoint: median survival time, dose: 25.0 mg/kg/injection, schedule: Q04DX003 (ip), vehicle: saline 102 % of control | endpoint: median survival time, dose: 50.0 mg/kg/injection, schedule: Q04DX003 (ip), vehicle: saline 108 % of control | endpoint: median survival time, dose: 100.0 mg/kg/injection, schedule: Q04DX003 (ip), vehicle: saline 112 % of control

Cc1cccc(OP(N)(=O)Oc2cccc(C)c2)c1
inactive: endpoint: mean survival time, dose: 100.0 mg/kg/injection, schedule: Q04DX002 (ip), vehicle: saline with Tween-80 96 % of control | endpoint: mean survival time, dose: 200.0 mg/kg/injection, schedule: Q04DX002 (ip), vehicle: saline with Tween-80 96 % of control | endpoint: mean survival time, dose: 400.0 mg/kg/injection, schedule: Q04DX002 (ip), vehicle: saline with Tween-80 96 % of control

COc1ccc(OC)c(C(O)CCc2cccc(N)c2)c1 (stereo not drawn)
inactive: endpoint: mean survival time, dose: 100.0 mg/kg/injection, schedule: Q04DX002 (ip), vehicle: Klucel (hydroxypropylcellulose) (HPC) 93 % of control | endpoint: mean survival time, dose: 200.0 mg/kg/injection, schedule: Q04DX002 (ip), vehicle: Klucel (hydroxypropylcellulose) (HPC) 93 % of control | endpoint: mean survival time, dose: 400.0 mg/kg/injection, schedule: Q04DX002 (ip), vehicle: Klucel (hydroxypropylcellulose) (HPC) 97 % of control

CC1(C)CC2(C)OC2C2(C1)N=NC(=Nc1ccccc1)O2 (stereo not drawn)
inactive: endpoint: median survival time, dose: 25.0 mg/kg/injection, schedule: Q01DX009 (ip), vehicle: saline with Tween-80 110 % of control | endpoint: median survival time, dose: 50.0 mg/kg/injection, schedule: Q01DX009 (ip), vehicle: saline with Tween-80 102 % of control

Cc1ccc([N+](=O)[O-])cc1NC(=O)Nc1onc(C)c1C
inactive: endpoint: mean survival time, dose: 12.5 mg/kg/injection, schedule: Q01DX009 (ip), vehicle: Klucel (hydroxypropylcellulose) (HPC) 89 % of control | endpoint: mean survival time, dose: 25.0 mg/kg/injection, schedule: Q01DX009 (ip), vehicle: Klucel (hydroxypropylcellulose) (HPC) 95 % of control

CCc1cc(CSc2ccc(Cl)cc2)ccc1N
inactive: [3] 102 % of control | [4] 100 % of control | [5] 98 % of control

CCCCOC(=O)C(C(=O)OCCCC)(C(=O)OCCCC)C(C(=O)OCCCC)(C(=O)OCCCC)C(=O)OCCCC
inactive: [1] 90 % of control | [2] 96 % of control

NP(=O)(Oc1cccc2c(OP(N)(=O)N(CCCl)CCCl)cccc12)N(CCCl)CCCl (stereo not drawn)
inactive: endpoint: mean survival time, dose: 31.25 mg/kg/injection, schedule: Q01DX001 (ip), vehicle: distilled water + Tween-80 95 % of control | endpoint: mean survival time, dose: 62.5 mg/kg/injection, schedule: Q01DX001 (ip), vehicle: distilled water + Tween-80 95 % of control | endpoint: mean survival time, dose: 125.0 mg/kg/injection, schedule: Q01DX001 (ip), vehicle: distilled water + Tween-80 95 % of control | endpoint: mean survival time, dose: 250.0 mg/kg/injection, schedule: Q01DX001 (ip), vehicle: distilled water + Tween-80 97 % of control | endpoint: mean survival time, dose: 500.0 mg/kg/injection, schedule: Q01DX001 (ip), vehicle: distilled water + Tween-80 95 % of control

CCN(CC)C(C(=O)Nc1ccccc1)C(=O)Nc1ccccc1
inactive: [8] 98 % of control | [9] 93 % of control | [10] 98 % of control

O=C(C=C(C(F)(F)F)C(F)(F)F)c1cccc(S(=O)(=O)F)c1
inactive: [7] 107 % of control

CCOc1ccc(NC(=S)N(C)C)cc1
inactive: [11] 94 % of control | [8] 94 % of control | [3] 89 % of control | [9] 90 % of control | [4] 96 % of control

COC(=O)c1cc([N+](=O)[O-])c(Sc2ncnc3nc[nH]c23)c([N+](=O)[O-])c1
inactive: endpoint: mean survival time, dose: 11.0 mg/kg/injection, schedule: Q01DX005 (ip), vehicle: other 103 % of control | [6] 110 % of control | endpoint: mean survival time, dose: 16.5 mg/kg/injection, schedule: Q01DX005 (ip), vehicle: other 124 % of control | endpoint: mean survival time, dose: 25.0 mg/kg/injection, schedule: Q01DX005 (ip), vehicle: other 95 % of control | endpoint: mean survival time, dose: 50.0 mg/kg/injection, schedule: Q01DX005 (ip), vehicle: other 115 % of control

OC1(CSc2ccccc2)CCCCC1
inactive: endpoint: mean survival time, dose: 12.5 mg/kg/injection, schedule: Q01DX009 (ip), vehicle: saline with Tween-80 98 % of control | endpoint: mean survival time, dose: 25.0 mg/kg/injection, schedule: Q01DX009 (ip), vehicle: saline with Tween-80 101 % of control | [11] 102 % of control | [8] 102 % of control | [9] 104 % of control | [10] 101 % of control

OC(c1c(F)c(F)c(C(O)(C(F)(F)F)C(F)(F)F)c(F)c1F)(C(F)(F)F)C(F)(F)F
inactive: [3] 96 % of control | [4] 104 % of control | [5] 96 % of control
